In the assay the test system is IRF3. In words: IRF3 activation assay in THP-1 Dual cells. Type of assay: cell-based. As to conditions: Homo sapiens, read-out: THP1 IRF3 EC50. How it is done: THP-1 Dual Cells (Invivogen) were maintained in RPMI1640 medium with addition of 10% FBS, 100 μg/ml zeocin, 10 μg/ml blasticidin. Cells were added in a 96-well flat bottom assay plate at 100,000 per well in 100 μL complete RPMI medium. Test compounds were prepared by serial dilution in complete RPMI medium and 100 μL test compounds were transferred to each corresponding well. The assay plate was incubated at 37° C., 5% CO2 for 24 hours. After the overnight incubation, 20 μL of the culture supernatants were collected, followed by addition of 180 μL of QUANTI-Blue (Invivogen) to assess IRF3 activity. The amount of IRF3 activation was assessed by reading the absorbance at 620-655 nm with a microplate reader 2 hours later. The culture supernatant from the untreated THP-1 cells was used as the negative control. EC50 determination was performed by fitting the curve of percent control activity versus the log of the compound concentration using the GraphPad Prism 6.0 software.

Broadly, the EC50 is the concentration that produces a half-maximal response.

The structures appear in SMILES notation. Like-named read-outs stand apart in the source and are kept apart here.

Regarding `CCn1nc(C)cc1C(=O)Nc1nc2cc(C(N)=O)cc(OCCCOC(=O)c3cc(C)nn3CC)c2n1C/C=C/Cn1c2ccc(C(N)=O)cc2c2cnc(-c3cc(C)nn3CC)nc21` [Example S17, (E)-3-((5-carbamoyl-1-(4-(6-carbamoyl-2-(1-ethyl-3-methyl-1H-pyrazol-5-yl)-9H-pyrimido[4,5-b]indol-9-yl)but-2-en-1-yl)-2-(1-ethyl-3-methyl-1H-pyrazole-5-carboxamido)-1H-benzo[d]imidazol-7-yl)oxy)propyl 1-ethyl-3-methyl-1H-pyrazole-5-carboxylate], the EC50 was at most 100 nM (THP-1, Table 4A); under 200 nM (THP-1, Table 4B); at most 50 nM (THP-1, Table 4C).
The corresponding values for `CCn1nc(C)cc1C(=O)Nc1nc2cc(C(N)=O)cc(OCCCO)c2n1C/C=C/Cn1c2ccc(C(N)=O)cc2c2cnc(-c3cc(C)nn3CC)nc21` [Example S18, (E)-9-(4-(5-carbamoyl-2-(1-ethyl-3-methyl-1H-pyrazole-5-carboxamido)-7-(3-hydroxypropoxy)-1H-benzo[d]imidazol-1-yl)but-2-en-1-yl)-2-(1-ethyl-3-methyl-1H-pyrazol-5-yl)-9H-pyrimido[4,5-b]indole-6-carboxamide] are at most 100 nM, under 200 nM and at most 50 nM.
The corresponding values for `CCn1nc(C)cc1C(=O)Nc1nc2cc(C(N)=O)cc(OCCCOC(=O)c3cc(C)nn3CC)c2n1C/C=C/Cn1c2nc(-c3cc(C)nn3CC)ncc2c2cc(C(N)=O)cc(OCCCN3CCOCC3)c21` [Example S19, (E)-3-((5-carbamoyl-1-(4-(6-carbamoyl-2-(1-ethyl-3-methyl-1H-pyrazol-5-yl)-8-(3-morpholinopropoxy)-9H-pyrimido[4,5-b]indol-9-yl)but-2-en-1-yl)-2-(1-ethyl-3-methyl-1H-pyrazole-5-carboxamido)-1H-benzo[d]imidazol-7-yl)oxy)propyl 1-ethyl-3-methyl-1H-pyrazole-5-carboxylate] are at most 100 nM, under 200 nM and at most 50 nM.
As to `CCn1nc(C)cc1C(=O)Nc1nc2cc(C(N)=O)cc(OCCCO)c2n1C/C=C/Cn1c2nc(-c3cc(C)nn3CC)ncc2c2cc(C(N)=O)cc(OCCCN3CCOCC3)c21` [Example S20, (E)-9-(4-(5-carbamoyl-2-(1-ethyl-3-methyl-1H-pyrazole-5-carboxamido)-7-(3-hydroxypropoxy)-1H-benzo[d]imidazol-1-yl)but-2-en-1-yl)-2-(1-ethyl-3-methyl-1H-pyrazol-5-yl)-8-(3-morpholinopropoxy)-9H-pyrimido[4,5-b]indole-6-carboxamide], the EC50 runs as follows: (THP-1, Table 4A) at most 100 nM; (THP-1, Table 4B) under 200 nM; (THP-1, Table 4C) at most 50 nM.
For `CCn1nc(C)cc1C(=O)Nc1nc2cc(C(N)=O)cc(OCCCOC(=O)c3cc(C)nn3CC)c2n1C/C=C/Cn1c2nc(-c3cc(C)nn3CC)ncc2c2cc(C(N)=O)cc(OCCCOC)c21` [Example S21, (E)-3-((5-carbamoyl-1-(4-(6-carbamoyl-2-(1-ethyl-3-methyl-1H-pyrazol-5-yl)-8-(3-methoxypropoxy)-9H-pyrimido[4,5-b]indol-9-yl)but-2-en-1-yl)-2-(1-ethyl-3-methyl-1H-pyrazole-5-carboxamido)-1H-benzo[d]imidazol-7-yl)oxy)propyl 1-ethyl-3-methyl-1H-pyrazole-5-carboxylate] the same measures were at most 100 nM, under 200 nM and at most 50 nM.
The corresponding values for `CCn1nc(C)cc1C(=O)Nc1nc2cc(C(N)=O)cc(OCCCO)c2n1C/C=C/Cn1c2nc(-c3cc(C)nn3CC)ncc2c2cc(C(N)=O)cc(OCCCOC)c21` [Example S22, (E)-9-(4-(5-carbamoyl-2-(1-ethyl-3-methyl-1H-pyrazole-5-carboxamido)-7-(3-hydroxypropoxy)-1H-benzo[d]imidazol-1-yl)but-2-en-1-yl)-2-(1-ethyl-3-methyl-1H-pyrazol-5-yl)-8-(3-methoxypropoxy)-9H-pyrimido[4,5-b]indole-6-carboxamide] are at most 100 nM, under 200 nM and at most 50 nM.
Take `CCn1nc(C)cc1C(=O)Nc1nc2cc(C(N)=O)cc(C)c2n1C/C=C/Cn1c2ccc(C(N)=O)cc2c2cnc(-c3cc(C)nn3CC)c(F)c21` [Example S23, (E)-5-(4-(5-carbamoyl-2-(1-ethyl-3-methyl-1H-pyrazole-5-carboxamido)-7-methyl-1H-benzo[d]imidazol-1-yl)but-2-en-1-yl)-3-(1-ethyl-3-methyl-1H-pyrazol-5-yl)-4-fluoro-5H-pyrido[4,3-b]indole-8-carboxamide]: the EC50 runs as follows: (THP-1, Table 4A) 100 to 500 nM; (THP-1, Table 4B) under 200 nM; (THP-1, Table 4C) 50 to 200 nM.
`CCn1nc(C)cc1C(=O)Nc1nc2cc(C(N)=O)cc(C)c2n1C/C=C/Cn1c2ccc(C(N)=O)cc2c2cc(F)c(-c3cc(C)nn3CC)nc21` [Example S24, (E)-9-(4-(5-carbamoyl-2-(1-ethyl-3-methyl-1H-pyrazole-5-carboxamido)-7-methyl-1H-benzo[d]imidazol-1-yl)but-2-en-1-yl)-2-(1-ethyl-3-methyl-1H-pyrazol-5-yl)-3-fluoro-9H-pyrido[2,3-b]indole-6-carboxamide]: the half-maximal effective concentration (EC50) was at most 100 nM (THP-1, Table 4A); under 200 nM (THP-1, Table 4B); at most 50 nM (THP-1, Table 4C).
The corresponding values for `CCn1nc(C)cc1C(=O)Nc1nc2cc(C(N)=O)cc(C)c2n1C/C=C/Cn1c2ccc(C(N)=O)cc2c2cc(C#N)c(-c3cc(C)nn3CC)nc21` [Example S25, (E)-9-(4-(5-carbamoyl-2-(1-ethyl-3-methyl-1H-pyrazole-5-carboxamido)-7-methyl-1H-benzo[d]imidazol-1-yl)but-2-en-1-yl)-3-cyano-2-(1-ethyl-3-methyl-1H-pyrazol-5-yl)-9H-pyrido[2,3-b]indole-6-carboxamide] are 100 to 500 nM, under 1000 nM and 200 to 500 nM.
The corresponding values for `CCn1nc(C)cc1C(=O)Nc1nc2cc(C(N)=O)cc(C)c2n1C/C=C/Cn1c2ccc(C(N)=O)cc2c2cnc(-c3cc(C)nn3CC)c(C#N)c21` [Example S26, (E)-5-(4-(5-carbamoyl-2-(1-ethyl-3-methyl-1H-pyrazole-5-carboxamido)-7-methyl-1H-benzo[d]imidazol-1-yl)but-2-en-1-yl)-4-cyano-3-(1-ethyl-3-methyl-1H-pyrazol-5-yl)-5H-pyrido[4,3-b]indole-8-carboxamide] are 500 to 1000 nM, under 1000 nM and 500 to 1000 nM.
The corresponding values for `CCn1nc(C)cc1C(=O)Nc1nc2cc(C(N)=O)cc(OCCCN3CCOCC3)c2n1C/C=C/Cn1c2nc(-c3cc(C)nn3CC)ncc2c2cc(C(N)=O)cc(OCCCOC)c21` [Example S27, (E)-9-(4-(5-carbamoyl-2-(1-ethyl-3-methyl-1H-pyrazole-5-carboxamido)-7-(3-morpholinopropoxy)-1H-benzo [d]imidazol-1-yl)but-2-en-1-yl)-2-(1-ethyl-3-methyl-1H-pyrazol-5-yl)-8-(3-methoxypropoxy)-9H-pyrimido[4,5-b]indole-6-carboxamide] are at most 100 nM, under 200 nM and at most 50 nM.
Turning to `CCn1nc(C)cc1C(=O)Nc1nc2cc(C(N)=O)cc(O)c2n1C/C=C/Cn1c2nc(-c3cc(C)nn3CC)ncc2c2cc(C(N)=O)cc(OCCCOC)c21` [Example S28, (E)-9-(4-(5-carbamoyl-2-(1-ethyl-3-methyl-1H-pyrazole-5-carboxamido)-7-hydroxy-1H-benzo[d]imidazol-1-yl)but-2-en-1-yl)-2-(1-ethyl-3-methyl-1H-pyrazol-5-yl)-8-(3-methoxypropoxy)-9H-pyrimido[4,5-b]indole-6-carboxamide], the EC50 runs as follows: (THP-1, Table 4A) at most 100 nM; (THP-1, Table 4B) under 200 nM; (THP-1, Table 4C) at most 50 nM.
Turning to `CCn1nc(C)cc1-c1ncc2c3cc(C(N)=O)cc(OC)c3n(C/C=C/Cn3c4nc(-c5cc(C)nn5CC)ncc4c4cc(C(N)=O)cc(OC)c43)c2n1` [Example S29, (E)-9,9′-(but-2-ene-1,4-diyl)bis(2-(1-ethyl-3-methyl-1H-pyrazol-5-yl)-8-methoxy-9H-pyrimido[4,5-b]inclole-6-carboxamide)], the EC50 (THP-1, Table 4A) was at most 100 nM.
The same measure, in the same setting: the value for `CCn1nc(C)cc1C(=O)Nc1nc2cc(C(N)=O)cc(C)c2n1C/C=C/Cn1c(NC(=O)c2cc(C)nn2CC)nc2cc(C(N)=O)c3ccoc3c21` [Example S31, (E)-1-(4-(5-carbamoyl-2-(1-ethyl-3-methyl-1H-pyrazole-5-carboxamido)-7-methyl-1H-benzo[d]imidazol-1-yl)but-2-en-1-yl)-2-(1-ethyl-3-methyl-1H-pyrazole-5-carboxamido)-1H-benzofuro[6,7-d]imidazole-5-carboxamide] was at most 100 nM; that for `CCn1nc(C)cc1C(=O)Nc1nc2cc(C(N)=O)cc(OC)c2n1C/C=C/Cn1c(NC(=O)c2cc(C)nn2CC)nc2cc(C(N)=O)cc(OCCCNC(=O)CCN)c21` [Example S32, (E)-7-(3-(3-aminopropanamido)propoxy)-1-(4-(5-carbamoyl-2-(1-ethyl-3-methyl-1H-pyrazole-5-carboxamido)-7-methoxy-1H-benzo[d]imidazol-1-yl)but-2-en-1-yl)-2-(1-ethyl-3-methyl-1H-pyrazole-5-carboxamido)-1H-benzo [d]imidazole-5-carboxamide] was at most 100 nM.

For the origin of these results see patent US11596692B1 (Incyte Corporation, priority 2018, dated 2023).
